Laboratory results as given in publication PMC7984888, “Inhibitory Activity of Pyrroloisoxazolidine Derivatives against Chlamydia trachomatis” (BioMed Research International, 2021).

Key:
Uninfected HeLa cells = experiment: Host cell cytotoxicity (morphology, nuclear integrity, cell count); format: cell-based; conditions: 48 h, Evans blue, DAPI, cell counting
Description: Uninfected HeLa cells were cultured with indicated concentration of individual compound or 0.5% DMSO. Forty-eight hours later, cells were fixed with methanol and stained with Evans blue for morphology or DAPI for nuclear integrity. Otherwise, at 48 h later, cells were detached and enumerated by a hemacytometer.  Figure 2 Lack of cytotoxicity of compounds 1 and 2 on HeLa cells. Uninfected HeLa cells were cultured with medium containing various concentrations of individual compound or 0.5% DMSO for 48 h. (a) The cellular morphology was stained with Evans blue, and cell nucleus was stained with DAPI. (b) The cells were enumerated by a hemacytometer. Data are presented as mean ± SD of three independent assays.

C. trachomatis L2 = experiment: Later treatment assay; format: cell-based, Chlamydia trachomatis; conditions: 2, 8 or 32 μM, progeny EBs at 36 hpi, compared with 0 hpi sample
Description: HeLa cells seeded in 48-well plate were infected with C. trachomatis L2 at an MOI of 0.2 and were treated with 2, 8, or 32 μM of compound at 0, 2, 12, and 24 hpi. At 36 hpi, cells were collected, and the production of infectious progeny EBs was determined as described above. Percent inhibition was calculated based on progeny EB count in compound-treated samples relative to DMSO-treated negative control.  Figure 5 Later treatment assay. (a) HeLa cells infected with C. trachomatis L2 were treated with 2, 8, or 32 μM individual compound at 0, 2, 12, or 24 hpi. The production of progeny EBs was determined at 36 hpi. (b–d) Percent inhibition of progeny EBs was calculated based on data in compound-treated samples relative to DMSO-treated control. Data are presented as mean ± SD of three independent assays. ∗∗p < 0.01, compared with each 0 hpi positive control sample by Student's t-tests.

Row | Compound | Cytotoxic activity on host cells (morphology, nuclear integrity, cell proliferation) (Uninfected HeLa cells) | Antichlamydial activity when chemical was added at 24 hpi (C. trachomatis L2) | Antichlamydial activity when chemical was added before 12 hpi (C. trachomatis L2)
1 | c1ccc(C2C3CC(c4ccccc4)N(c4ccccc4)C3ON2c2ccccc2)cc1 (stereo not drawn) [Compound 1] | No substantial cytotoxic activity | dramatically dropped | maintained
2 | Clc1ccc(N2C(c3ccccc3)CC3C(c4ccccc4)N(c4ccccc4)OC32)cc1 (stereo not drawn) [Compound 2] | No substantial cytotoxic activity | dramatically dropped | maintained
